For data set [1] the following is noted: fraction of the toxicity of common table salt; general statement, no test described; cited from earlier work.
The test system of the next data set is alcohol induced hangover. Put plainly: focus group: treating an alcohol induced hangover. The settings on record: eight subjects (four male, four female); approximately 0.06 ounces powder in approximately 8 ounces of water or juice, oral, morning after an average of 9.5 alcoholic drinks; self-reported by each subject. The data set is classed as in vivo, human. As for the experimental part:
Each subject consumed an average of 9.5 alcoholic drinks in an average time period of 4.1 hours over the course of one evening. Each subject reported that they experienced the effects of an alcohol induced hangover the following morning. Upon rising, the subjects each ingested approximately 0.06 ounces of methylsulfonylmethane powder which had been mixed with approximately 8 ounces of water or juice. Each subject attested to the fact the effects of their alcohol induced hangover were relieved within less than one hour after ingesting the methylsulfonylmethane compound.

Take `CS(C)(=O)=O` [methylsulfonylmethane]: the “toxicity level relative to common table salt” value in data set [1] was 1/7. Moreover, the “time until effects of alcohol induced hangover were relieved after ingesting” value with alcohol induced hangover is reported as “less than one”.

The values above are taken from patent US20040082667A1, “Hangover treatment” (priority 2002, published 2004).
